Assay results taken from patent US12030896B2, “PIKfyve inhibitors” (Mayo Foundation for Medical Education and Research, priority 2018, dated 2024).

Legend:
[1] = system: Human osteosarcoma cells (U2OS, 143B, MG63, and SAOS2) and human pancreatic cancer cells (Panc-1, CFPAC); assay: Killing of osteosarcoma and pancreatic cell lines (Alamar Blue); assay type: cell-based; settings: 72 hrs
Protocol: Human osteosarcoma cells (U2OS, 143B, MG63, and SAOS2) and human pancreatic cancer cells (Panc-1, CFPAC) were similarly tested for killing by the compound, as shown in FIG. 5. All experiments in FIG. 5 were performed using DMEM:F12 media (Life Technologies) as the base formulation for “complete” media for experiments with 143B and MG63 cells. Also, Alamar Blue was used to assay the relative number of viable cells per well after 72 hrs of growth. For these assays, growth media was removed from the cells, and replaced with fresh (“complete) media containing Alamar Blue reagent (Life Technologies) diluted 1:10. Plates were incubated at 5% CO2, 37° C. for 40 min then removed from the incubator and fluorescence was measured using a Synergy H1 microplate reader (Excitation: 560 nm Emission: 590 nm). Values represent raw photo counts minus the value of a well with Alamar Blue reagent (1:10 in medium) but no cells.

[2] = system: E2409 murine lymphoma cells; assay: E2409 lymphoma flank tumor survival study; assay type: in vivo, Nude mice; settings: 1 mg daily IP injection vs vehicle only; p<0.02
Protocol: Nude mice were injected in the flank with 1 million E2409 murine lymphoma cells, and allowed to grow for 4 days, at which point a small detectable lump was observed on each mouse. Mice were injected daily by IP injection with 100 μl of vehicle (10% dmso, 20% cremaphor, 70% water) with or without 1 mg of the test compound. Mice were euthanized when tumor size exceeded 1500 mm^3.

[3] = system: MPNST cells lines (S462, S462TY, 26T, T265, SNF96.2); assay: Cytotoxicity against MPNST cell lines; settings: DMEM-based medium
Text: For this reason, it was hypothesized that tumor cells that have activated RAS would have increased sensitivity to this compound. Malignant peripheral nerve sheath tumors (MPNSTs) arise in the population sporadically, and with very high frequency in patients with NF1 mutation. NF1 is a RAS suppressor, and therefore, tumors arising in the NF1-mutant background, have apriori activation of the RAS signaling pathway.

Row | SMILES | cell killing [1] | survival [2] | sensitivity to compound-induced death [3]
1 | Cc1ccc(Nc2nc(N/N=C/c3c[nH]c4ccccc34)nc(N3CCOCC3)n2)cc1 [Example 1, (E)-4-(2-((1H-indol-3-yl)methylene)hydrazinyl)-6-morpholino-N-(p-tolyl)-1,3,5-triazin-2-amine] | killing | prolonged survival | –
2 | Cc1ccc(Nc2nc(N/N=C/c3c[nH]c4ccccc34)cc(N3CCOCC3)n2)cc1 [Example 3, (E)-4-(2-((1H-indol-3-yl)methylene)hydrazinyl)-6-morpholino-N-(p-tolyl)pyrimidin-2-amine] | – | – | highly sensitive
